Assay results: US10092590B2, “Composition of HMB and ATP and methods of use” (Metabolic Technologies, Inc., priority 2012, dated 2018)

Assays:
[1] = Perceived Recovery Status (PRS) scale; assay type: in vivo, human; conditions: over the 12-week study
Method: (§1) Prior to the study, participants were randomly assigned to receive either 3 g per day of HMB Free Acid (HMB) (combined with food-grade orange flavors and sweeteners), 400 mg per day of ATP (PEAK ATP®; TSI, Inc.), a combination of both 3 g of HMB and 400 mg per day of ATP, or a placebo (food-grade orange flavors and sweeteners) divided equally into three servings daily with the first serving given 30 minutes prior to exercise and the remaining two servings daily with the mid-day and evening meals. On the non-training days participants were instructed to consume one serving with each of three separate meals. The supplementation was continued daily throughout the training and testing protocols. Each serving was formulated with 1 gram of HMB free acid to account for fill and emptying variation and achieve a minimum effective dosage of 0.800 grams. This dosage would be equivalent to a 1 gram Ca-HMB dosage.
Perceived Recovery Status (PRS) scale was measured at weeks 0, 4, 8, 9, 10, and 12 to assess subjective recovery during the training phases. The PRS scale consists of values between 0-10, with 0-2 being very poorly recovered and with anticipated declines in performance, 4-6 being low to moderately recovered and expected similar performance, and 8-10 representing high perceived recovery with expected increases in performance.

[2] = Body composition by dual x-ray absorptiometry (weight, lean body mass, fat); assay type: in vivo, human
[3] = Skeletal muscle hypertrophy, ultrasonography quadriceps muscle thickness (VL and VI); assay type: in vivo, human; conditions: week 8 of study
[4] = test system: creatine kinase (CK); assay: Serum creatine kinase (muscle damage), colorimetric; assay type: in vivo, human; conditions: week 9 (overreaching); mean ± SEM
Method: as §1, with “dosage. […]” for “dosage.”
(§2) Samples were thawed one time and analyzed in duplicate for each analyte. […] All hormones were measured in the same assay on the same day to avoid compounded interassay variance. […] Serum creatine kinase (CK) was measured using colorimetric procedures at 340 nm (Diagnostics Chemicals, Oxford, Conn.). Twenty-four hour urine collections were made and 3-methylhistine was determined by previously described methods (Rathmacher et al 1992 and Wilson et al, 2013).

[5] = test system: cortisol; assay: Serum cortisol, ELISA; assay type: in vivo, human; conditions: week 9 (overreaching); mean ± SEM
Method: as §1, with “dosage. […]” for “dosage.”
as §2

[6] = test system: total testosterone; assay: Serum total testosterone, ELISA; assay type: in vivo, human; conditions: week 9 (overreaching); mean ± SEM
Method: as §1, with “dosage. […]” for “dosage.”
as §2

[7] = test system: skeletal muscle protein synthesis; conditions: acute ingestion of 2.4 grams; cited from earlier work

Row | Structure (SMILES) | effect on PRS [1] | DXA LBM ([2]; week 4 of study) [kg] | DXA Fat ([2]; week 8 of study) [%] | DXA LBM ([2]; week 8 of study) [kg] | Quad (quadriceps muscle thickness) [3] [mm] | CK [4] [IU/L] | Cortisol [5] [µg/dL] | Total Testosterone [6] [ng/dL] | decrease in protein breakdown [7] [%] | increase in skeletal muscle protein synthesis [7]
1 | Nc1ncnc2c1ncn2[C@@H]1O[C@H](COP(=O)(O)OP(=O)(O)OP(=O)(O)O)[C@@H](O)[C@H]1O [ATP, Adenosine-5′-triphosphate] | no main effect |  |  |  |  |  |  |  |  | 
2 | CC(C)(O)CC(=O)O [HMB-FA, β-hydroxy-β-methylbutyric acid] |  | 69.2 ± 2.7 | 15.9 ± 1.5 | 71.3 ± 2.7 | 56.0 ± 1.4 | 288 ± 18 | 19.6 ± 1.1 | 752 ± 61 | −56 | +70%
